For series [1] the following is noted: 313.15 K; 101.33 kPa; Liquid; Vibrating tube method.
A short description of series [2]: refractive index (Na D-line) (dimensionless). The following applies: 313.15 K; 101.33 kPa; Liquid; refractometer.

Each structure is given as a SMILES string. Numbers after ± are expanded uncertainties.

In the case of `CCOC(=O)OCC` [diethyl carbonate], the mass density (in general, mass per unit of volume) in series [1] is reported as 952.43 ± 0.08 kg/m3. Moreover, the refractive index (as a rule, a measure of how strongly the sample bends light) in series [2] came out at 1.3754 ± 0.0001.

In the case of `COC(=O)OC` [dimethyl carbonate], the mass density in series [1] is recorded as 1043.19 ± 0.08 kg/m3. In addition, the refractive index in series [2] is on record as 1.359 ± 0.0001.

The values above are taken from the NIST ThermoML archive (doi:10.1021/je034159d).
